Experimental data: patent publication US7781423B2, “Compounds to promote regeneration of bone marrow” (priority 2007, dated 2010)
Where two headings read alike, the source gives them in different places.

Assays:
[1] = test system: granulocyte-macrophage colony-forming units (CFU-GM); assay: Recovery of bone marrow function after sublethal whole body irradiation (nucleated BM cells, CFU-GM assay); format: in vivo, C57B1 mice; settings: for CFU-GM per femur / CFU-GM/10^5 nucleated BM cells: CCompound1 4.5 mg per kg i.p. daily, day -3 to day +3; for CFU-GM/10^5 nucleated BM cells: colonies counted on day 7 of culture
Description: This experiment served to determine if CCompound1 was able to promote regeneration of partially ablated bone marrow from endogenous stem cells i.e. promote restoration of the capacity of bone marrow to produce blood cells. The CFU-GM assay was performed because the number of CFU-GM per femur is a good indicator of bone marrow regeneration. Ballestrero, A., Ferrando, F., Garuti, A., Basta, P., Gonella, R., Stura, P., Mela, G. S., Sessarego, M, Gobbi, M. and Patrone, F., “Comparative effects of three cytokine regimens after high-dose cyclophosphamide: Granulocyte colony-stimulating factor, granulocyte-macrophage colony-stimulating factor (GM-CSF), and sequential interleukin-3 and GM-CSF,” J. Clin. Oncol., 17, 1296-1303 (1999).
C57B1 female (10-14 weeks old) mice received sublethal (250 cGy) whole body irradiation from a ^137Cesium source (day 0). Starting three days before irradiation, animals received daily 4.5 mg per kg of CCompound1 via intraperitoneal injection; this treatment also was provided on day 0 and once daily for three days subsequent to irradiation. In another group, mice were injected only with physiological saline. The subsequent procedure has been reported in Vas, V., Fajka-Boja, R., Ion, G. A., Dudics, V., Monostori, E. and Uher, F., “Biphasic effect of recombinant Galectin-1 on the growth and death of early hematopoietic cells,” Stem Cells, 23, 279-287 (2005). Briefly, bone marrow was flushed from the femurs with Iscove's modified Dulbecco's medium (Gibco BRL, Gaithersburg, Md., USA), and after standard erythrocyte lysis, nucleated cells were counted using a hemocytometer. […] To measure the formation of the granulocyte-macrophage colony-forming units (CFU-GM), a semisolid colony-forming cell assay was used. Nucleated bone marrow cells (isolated on the days as indicated above) were plated in 35-mm Petri dishes (Costar, Cambridge, Mass., USA) in Iscove's modified Dulbecco's medium supplemented with 1% methylcellulose, 30% horse serum (Gibco), 10% WEHI-3B conditioned medium as a source of growth factors, 4 mM L-glutamine, 0.25 mM a-thioglycerol (Gibco), 1% deionized bovine serum albumine (Sigma), and antibiotics (Gibco). Cells were cultured at 37° C. in 5% CO2/95% air atmosphere and colonies were counted on day 7 in the same dish. Colonies containing at least 50 cells were counted which is a generally accepted value in the literature. Each value represents the mean±st. dev. of 9 samples (3 parallel dishes from each animal).

MTT cell viability assay = format: cell-based; settings: human, read-out: decrease of viability
Description: The NIH 3T3 (normal) mouse fibroblast, A431 human epidermoid adenocarcinoma, and MCF-7 human breast cancer cells were cultured in DMEM medium containing 10% FBS. The MEL-28 human melanoma cells were cultured in MEM medium containing 10% FBS. The HT-29 human colon adenocarcinoma cells were cultured in McCoy's 5a medium containing 10% FBS. The A549 human lung carcinoma cells were maintained in Ham's F12K medium containing 10% FBS. T47D cells were cultured in 12-well plates in RPMI 1640 medium supplemented with 0.2 IU bovine insulin and 10% FBS. CaOV-3 human ovarian cancer cells were cultured in DMEM containing 10% FBS. ZR-75-1 human estrogen receptor-positive breast cancer cells were maintained in RPMI 1640 medium supplemented with 10% FBS. HTB-157 human fetal fibroblasts, MEL-24 human malignant melanoma cells, Hep G2 human hepatoblastoma cells, and CaCO-2 human colon adenocarcinoma cells were maintained in Eagles's MEM containing 10% FBS. MB-231 human estrogen receptor-negative breast cancer cells were maintained in Leibovitz's L-15 medium supplemented with 10% FBS.
In the actual experiments, cells were seeded into 96-well plates and cultivated up to either ˜70-90% confluency (survival experiments) or 20-25% confluency (proliferation experiments). Then the medium was changed for serum-free medium (survival experiment) or 2% serum-containing medium (proliferation experiment). The incubation continued for 72 hours followed by the MTT assay to determine cell viability. This calorimetric assay is based on the ability of living cells, but not dead cells, to reduce 3-(4,5-dimethyl thiazol-2-yl)-2,5-diphenyltetrazolium bromide. Carmichael, J, De Graff, W. G., Gazdar, A. F., Minna, J. D. and Mitchell, J. B., “Evaluation of tetrazolium-based semiautomated calorimetric assay: Assessment of chemosensitivity testing,” Cancer Res., 47, 936-942 (1987).

MXT mammary tumor = format: in vivo; settings: MXT tumor-bearing, CP-treated mice, by day 22
Description: This experiment was designed to determine whether in a tumor model CC compounds could prevent cyclophosphamide-induced loss of body weight resulting from the depression of blood marrow function. Specified pathogen free (SPF) hygienic category colonies of first generation hybrid BDF1 (C57B1 female×DBA/2 male) adult female mice, weighing 23-24 g, were used. The animals were kept in macrolon cages at 22-24° C. (45-55% humidity), with a lighting regimen of 12/12 h light/dark. […] The animals used in these studies were cared for according to the “Guiding Principles for the Care and Use of Animals” based upon the Helsinki declaration.
MXT mammary tumor pieces (containing about 10^6 tumor cells) were implanted subcutaneously to develop the tumors. After six days when the tumor-bearing mice were first treated, the sizes of the tumors were in the 0.26-0.30 cm^3 range. All compounds used were dissolved in 0.9% sodium chloride and applied subcutaneously (CC compounds) or intraperitoneally (CP) in 50 μl volume. Tumor volume was determined by using calipers in three dimensions; this technique is well known to one having ordinary skill in the art. Tumor volume was calculated according to the generally accepted formula: V=a^2×b×π/6, where “a” and “b” mean the shortest and longest diameter, respectively, of the measured tumor.
In the first group, animals received no treatment. In the second group, mice were administered 120-mg/kg of CP on day 6 followed by seven consecutive daily treatments with the same dose. In the third group, each treatment with CP was associated with administration of 4.5-mg/kg of CCompound1. In the fourth group, each treatment with CP was associated with administration of 4.5-mg/kg of CCompound3. In the fifth group, each treatment with CP was associated with administration of 2.0-mg/kg of CCompound26. Each group included 7 mice. All data represent the average of 7 determinations (one determination with each mouse in the group).

[2] = day 3 after 250 cGy irradiation
[3] = day 6 after 250 cGy irradiation
[4] = day 10 after 250 cGy irradiation

Q: For `Cc1c(OCC(O)C[N+](C)(C)C)cc2c(=O)c3ccccc3sc2c1C.[Cl-]` (stereo not drawn) [CCcompound1, [3-(3,4-Dimethyl-9-oxo-9H-thioxanthen-2-yloxy)-2-hydroxypropyl]trimethyl-ammonium chloride], which CFU-GM per femur [1, 2] is on record?
A: 508

Q: What about the “CFU-GM/10^5 nucleated BM cells” value [1, 2] of the same molecule?
A: 87.8 ± 9.0

Q: What about the CFU-GM per femur [1, 3] of the same molecule?
A: 713

Q: And the “CFU-GM/10^5 nucleated BM cells” value [1, 3]?
A: 92.3 ± 7.2

Q: And the CFU-GM per femur [1, 4]?
A: 1,081

Q: And the “CFU-GM/10^5 nucleated BM cells” value [1, 4]?
A: 94.4 ± 8.1

Q: And the “effect on number of nucleated bone marrow cells and CFU-GM” value ([1]; from the third day on after sublethal irradiation)?
A: enhanced the number of nucleated bone marrow cells and CFU-GM

Q: And the cytotoxicity at 72 h, 50 μM (MTT cell viability assay; CaOV-3 ovarian cancer cells)?
A: 20 to 40%

Q: And the cytotoxicity at 72 h, 50 μM (MTT cell viability assay; Hep G2 hepatoblastoma cells)?
A: 20 to 40%

Q: What about the cytotoxicity at 72 h, 50 μM (MTT cell viability assay; MEL-28 melanoma cells) of the same molecule?
A: 20 to 40%

Q: What about the cytotoxicity at 72 h, 50 μM (MTT cell viability assay; ZR-75-1 estrogen receptor-positive breast cancer cells) of the same molecule?
A: 20 to 40%

Q: And the “effect on body weight” value (MXT mammary tumor)?
A: body weight gain
